Measured values from patent US6160008A, “Pharmaceutical compositions comprising S-alkylisothiouronium derivatives” (priority 1996, dated 2000).
Entries after “also recorded” stand apart in the source; their conditions may differ.

Columns and labels:
[1] = tested on: rats exposed to an oxygen pressure of 6 atm; experiment: Toxic effect of oxygen at a pressure of 6 atm in rats (Tables 16-18); assay type: in vivo, white rats; details: 20 mg/kg i.p.
Experimental: Experiments on the toxic effect of oxygen at a pressure of 6 atm were carried out similarly in a hyperbaric chamber C-203 (chamber volume 0.45 m^3), on white rats, during 50 minutes. The preparation was injected intraperitoneally at a dose of 20 mg/kg. In the controls, 2 ml/kg of water for injections was injected intraperitoneally. After decompression the rats were decapitated and the glucose content, urea content, ureal nitrogen and total hemoglobine content were determined in the blood serum, as well as the index <<lung mass in gr./body mass in gr. X 100>> (i.e. lung coefficient).

arterial blood pressure = experiment: Influence of single intravenous injection on arterial blood pressure, heart rate and respiratory rate in anesthetized cats (Table 1, FIGS. 1-10); assay type: in vivo; details: 5 mg/kg i.v.
Experimental: Experiments were performed on 52 anesthetized (intraperitoneally with 45 mg/kg of sodium pentobarbital) cats of both genders with body mass of 2.8-4.2 kg. Arterial pressure was measured by a mercury pressure gauge; measurements were also performed by ECG. Simultaneously, the respiratory frequency was registered. The hypertensive effect was determined as percent increase relative to the initial level of systolic arterial pressure (SAP). The duration of observation was 1-3 hours; the heart rate (HR) was calculated on the basis of ECG.

[2] = tested on: cardiovascular system of dogs; experiment: Effect on the cardiovascular system of dogs (FIGS. 11-13); assay type: in vivo; details: i.v.
Experimental: In the following tests, the effect of S-ethylisothiouronium diethylphosphate was studied on the cardiovascular system of dogs. AP was measured by two methods: it was registered on the tail artery by means of a piezosensor (Ugo Bazile pressure gauge) and in the thigh artery by a catheter filled with heparin. Electrocardiogram was registered in three standard branches.
S-ethylisothiouronium diethylphosphate was injected at doses of 1 mg/kg (n=5), 5 mg/kg (n=18), and 100 mg/kg (n=8). […] The development of a bradycardiac effect was noted which started already on the first minutes after the injection, reaching on the average 25-30% of the initial level. Maximal bradycardiac value was observed on the 30th-40th minutes after the experiment started and maintained till the 60th minute of the observation.
Due to this fact the study was carried out separately for normotonics and hypotonics.

[3] = tested on: rats exposed to an oxygen pressure of 3 atm; experiment: Survival under oxygen pressure of 3 atm, rats (Table 15); assay type: in vivo, Wistar rat; details: 5 hours
Experimental: Animals were exposed to oxygen under increased pressure in a hyperbaric chamber <<Mana-2≤≤ for treatment of infants above 1 year, which was adjusted for the experiments on animals. The hyperbaric chamber design permitted to create excessive pressure up to 3 atm and to observe animal behavior from outside.
The experiments were performed on males of F1 (CBAx57B1) mice line and on males of Wistar rat line. Animals were placed in the hyperbaric chamber in plastic boxes and the atmospheric air was replaced by oxygen. The period of compression-decompression was 10 minutes. The exposure of the animals to an oxygen pressure of 3 atm during a period of 2 hours caused only some increase in their motion activity. Further staying of rats and mice in those conditions led to a decrease in the motion activity, to asphyxia with short periods of excitement and cramps. The death of some animals was registered after 2.5-3 hours, 50% after 4 hours, and 75% of mice and 100% of rats were dead after 5 hours.
When the influence of Difetur and Etyron was studied, the animals were exposed to an oxygen pressure of 3 atm during 5 hours if not otherwise specified. Preparations were injected 5-10 minutes before the session.

[4] = Biochemical tests of dog blood serum and general toxicity, 3-day experiment (Tables 10-14); assay type: in vivo; details: 10 mg/kg i.v. daily, 3 days, dogs
Experimental: In an experiment on dogs, the functional condition of the organism was estimated by biochemical tests, after the intravenous injection of a 10% solution S-ethylisothiouronium diethylphosphate, at a dose of 10 mg/kg daily. This experiment was conducted at the same time of the day. Blood was examined 1 hour after the administration of the preparation during 3 successive days and on the 4th, the 5th and on the 10th day after injection. The concentrations of total protein, of albumin, globulins, total cholesterol, and glucose in dog blood serum were determined by conventional methods. The total protein content was determined by biureth method, total cholesterol--by like method, glucose--by glucose-oxidase method.
The general toxicity and biochemical parameters were determined in a 3-day experiment, where a 10% solution of the preparation was daily intravenously injectioned at a dose of 10 mg/kg.

[5] = listed as S-ethylisothiuronium diethylphosphate

SMILES: CCSC(=N)N [S-ethylisothiouronium diethylphosphate]
- Asphyxia, animal number ([1]; 36 rats): 0
- Generalized cramps, % of animals ([1]; 36 rats): 2.8%
- Generalized cramps, animal number ([1]; 36 rats): 1
- Lateral position, animal number ([1]; 36 rats): 0
- Number of perished rats ([1]; 36 rats): 0
- Lung coefficient (lung mass in gr./body mass in gr. X 100) ([1]; Average ± SD, 16 animals): 0.474 ± 0.024
- Glucose (blood serum) ([1]; M ± m, n = 16): 5.765 ± 0.214
- Hemoglobin (blood serum) ([1]; M ± m, n = 16): 2.028 ± 0.048
- Urea (blood serum) ([1]; M ± m, n = 16): 4.643 ± 0.212
- Urea Nitrogen (blood serum) ([1]; M ± m, n = 16): 2.163 ± 0.099
- Protection at 6 atm in words ([1]; rats, listed as Difetur): improve blood serum biochemical indices; also recorded: efficiently protect lungs from the toxic effect of increased oxygen pressure; also recorded: did not practically effect the hemoglobin content but considerably improved other indices; also recorded: significantly reduced the <<lung mass in gr./body mass>> index; also recorded: completely prevented animals' death and reduced other visible consequences of the oxygen poisoning
- Hypertensive activity, % (increase relative to the initial level of SAP) (arterial blood pressure): 40%
- Hypertensive effect in words (arterial blood pressure): one of the most active compounds; also recorded: most active compound
- RR (influence on respiratory rate) (arterial blood pressure): increases RR
- Time to achieve maximum effect (arterial blood pressure): 2 min
- Hypertensive activity (increase of SAP) (arterial blood pressure; given as "> SAP by", listed as S-ethylisothiuronium diethylphosphate): 40 mm Hg
- Duration of effect (arterial blood pressure; [5]): 1 to 1.5 h
- Hypertensive activity, % (increase relative to the initial level of SAP) (arterial blood pressure; [5]): 40%
- Influence on HR (arterial blood pressure; [5]): Bradycardia
- RR (influence on respiratory rate) (arterial blood pressure; [5]): Increases
- Electrocardiogram ([2]; all doses): did not reveal any pathological changes
- Bradycardiac effect, relative to the initial level ([2]; dogs): 25-30%
- Optimal dose ([2]; dogs): 5 to 10 mg/kg
- Hypertensive effect in words ([2]; dogs, all doses): does not cause secondary hypotension; also recorded: greater in hypotensive than in normotensive animals; also recorded: pronounced hypertensive effect at all the doses used
- Hypertensive effect in words ([2]; dogs, all doses, listed as S-ethylisothiouroniumdiethylphosphate): the hypertensive reaction in dogs with low arterial pressure is stronger and more prolonged
- Number of survived animals ([3]; 5 mg/kg): 60%
- Number of survived animals ([3]; 10 mg/kg): 50%
- Number of survived animals ([3]; 20 mg/kg): 70%
- General toxicity and serum biochemistry in words [4]: wavy fluctuations with the tendency to decrease on the 4th and 5th day; also recorded: The level of albumins and globulins also changed in a wavy manner; also recorded: The level of total cholesterol and glucose had slight fluctuations which did not overstep the fluctuation limits of healthy dogs; also recorded: no evidence was found for intoxication or any significant deviation between the parameters studied and the initial data; also recorded: individual sensitivity of the animals to intravenous injection of the preparation was not found
